Data reported in article PMC3684613 (PLoS ONE, 2013).
Where two headings read alike, the source gives them in different places.

Legend:
P. falciparum 3D7 [1] = system: P. falciparum 3D7; set-up: method as in ChEMBL-NTD; conditions: ref ChEMBL-NTD, cited from earlier work
P. falciparum 3D7 [2] = test: DAPI stain fluorescent high content imaging assay, P. falciparum 3D7 (confirmatory screen, Avery); conditions: Plasmodium falciparum; for inhibition of growth at 5 µM: 3D7, read-out: percent_inh @ 5 uM; for EC50: 3D7, read-out: EC50_nM; for inhibition of growth at 2 µM: 3D7, read-out: percent_inh @ 2 uM
[3] = values follow the order of the source (GNF; GSK; StJude)
[4] = original screening data, source (GSK, GNF, StJude), several values separated by ';' in order of sources

Row | SMILES | inhibition of growth at 5 µM (P. falciparum 3D7 [2]) [%] | EC50 (P. falciparum 3D7 [2]) [nM] | also measured
1 | O=C(Nc1ccc(Cl)cc1)N1CCN(c2ccc3nncn3n2)CC1 [MMV665917] | 62 | – | EC50 (P. falciparum 3D7 [1]; source GNF): 2060 nM
2 | CCCc1c(C)nc2ccccc2c1O [MMV666081] | 88 | – | EC50 (P. falciparum 3D7 [1]; source GNF): 630 nM
3 | Oc1ccc2ccccc2c1CNc1nc2ccccc2[nH]1 [MMV011832] | 83 | 646 | EC50 (P. falciparum 3D7 [1]; [3]): 652 nM
4 | CN1c2ccccc2N(C)C1c1ccc2c(c1)OCO2 [MMV666009] | 60 | 994 | EC50 (P. falciparum 3D7 [1]; source GNF): 1120 nM
5 | O=C(Nc1ccc(-c2nc3cc4ccccc4cc3[nH]2)cc1)c1cccc(Br)c1 [MMV019241] | 93 | 450 | EC50 (P. falciparum 3D7 [1]; source GSK (TCMDC ids)): 363 nM
6 | CCCc1c(CC)c(=N)c2ccccc2n1C [MMV008416] | 69 | 242 | EC50 (P. falciparum 3D7 [1]; source GNF (GNF-Pf id)): 762 nM
7 | O=[N+]([O-])c1ccc(C=NNc2nc3ccccc3[nH]2)cc1 [MMV666607] | 99 | 142 | EC50 (P. falciparum 3D7 [1]; source GNF (GNF-Pf id)): 818 nM; EC50 (P. falciparum 3D7 [1]; source GSK (TCMDC id)): 283 nM
8 | COc1cc(OC)c(N(C)C(=O)c2cc3c(s2)-c2ccccc2S(=O)(=O)C3)cc1Cl [MMV006427] | 100 | 78.2 | EC50 (P. falciparum 3D7 [1]; source GNF (GNF-Pf id)): 113 nM
9 | Cc1cc(Nc2ccc(OCc3ccccc3)cc2)nc2cc(O)ccc12 [MMV007181] | 96 | 684 | EC50 (P. falciparum 3D7 [1]; [3]): 73.6 nM
10 | O=c1nc(C=Cc2ccc(Br)cc2)oc2ccccc12 [MMV666599] | 94 | – | EC50 (P. falciparum 3D7 [1]; source GSK (TCMDC ids)): 1050 nM
11 | COc1ccc(N2CCN(C(CNC(=O)CC(C)(C)C)c3ccc4c(c3)OCO4)CC2)cc1 (centres unmarked) [MMV665908] | 95 | – | EC50 (P. falciparum 3D7 [1]; source StJude (SJ ids)): 4280 nM
12 | Cc1ccc(N2C3c4ccccc4N(S(=O)(=O)c4ccc(C)cc4)C2c2ccccc2N3S(=O)(=O)c2ccc(C)cc2)cc1 [MMV007160] | 97 | 24.8 | EC50 (P. falciparum 3D7 [1]; source GNF (GNF-Pf id)): 720 nM
13 | COCCn1c(C)nc2ccccc2c1=O [MMV665904] | 59 | – | EC50 (P. falciparum 3D7 [1]; [4]): 1460 nM
14 | Cc1ccc2c(C)nc(Nc3nc(C)cc(-c4ccccc4)n3)nc2c1 [MMV007041] | – | 4000 | EC50 (P. falciparum 3D7 [1]; [3]): 975 nM; inhibition of growth at 2 µM (P. falciparum 3D7 [2]): 73%
15 | CCOc1cc(Cl)c(C(C)NC(=O)c2cccc(OC)c2)cc1OCC (centres unmarked) [MMV665803] | 98 | 728 | EC50 (P. falciparum 3D7 [1]; source GSK): 956 nM
16 | COc1ccc(N2CCN(C(CNC(=O)C3CCCCC3)c3ccc4c(c3)OCO4)CC2)cc1 (centres unmarked) [MMV019662] | 97 | 1110 | EC50 (P. falciparum 3D7 [1]; source GSK): 566 nM
17 | O=C(Nc1ccsc1C(=O)NC1CCCCC1)c1ccc(F)cc1 [MMV665939] | 86 | – | EC50 (P. falciparum 3D7 [1]; source GSK): 1210 nM
18 | COC(=O)c1ccc(C2C3=C(O)CC(c4ccc(F)cc4)CC3=Nc3ccccc3N2C(=O)c2ccccc2)cc1 (centres unmarked) [MMV011438] | 98 | 326 | EC50 (P. falciparum 3D7 [1]; [3]): 332 nM
19 | c1ccc(CNc2nc(Nc3ccccc3)nc3ccccc23)cc1 [MMV006169] | – | 776 | EC50 (P. falciparum 3D7 [1]; [3]): 158 nM; inhibition of growth at 2 µM (P. falciparum 3D7 [2]): 95%
20 | COc1cc(C(=O)ON=C(N)Cc2cccc3ccccc23)cc(OC)c1OC [MMV666687] | 99 | 782 | EC50 (P. falciparum 3D7 [1]; [3]): 280 nM
21 | CCOC(=O)C1=C(C)N=c2sc(=Cc3ccccc3O)c(=O)n2C1c1ccc(OC)c2ccccc12 (centres unmarked) [MMV666604] | 97 | 1510 | EC50 (P. falciparum 3D7 [1]; source GSK (TCMDC ids)): 1260 nM
22 | Cc1cccc(N2C(=O)C3C(C2=O)C2(c4ccccc4)C(=O)C3(c3ccccc3)C(c3ccc4c(c3)OCO4)=C2c2ccc3c(c2)OCO3)c1 (centres unmarked) [MMV007228] | 94 | 304 | EC50 (P. falciparum 3D7 [1]; [3]): 1070 nM
23 | Cc1cc(NC(=O)C2c3ccccc3C(=O)N(CC(C)C)C2c2cccs2)no1 (centres unmarked) [MMV006429] | 100 | 32.8 | EC50 (P. falciparum 3D7 [1]; source GNF (GNF-Pf id)): 85.6 nM
24 | O=C(Nc1ccc(Cl)c(Cl)c1)Nc1ccc(Cl)c(Cl)c1 [MMV665852] | 96 | 1160 | EC50 (P. falciparum 3D7 [1]; [3]): 1030 nM
25 | CCOc1ccccc1NC(=O)CN1CCN(C(=O)c2ccco2)CC1 [MMV007791] | 83 | – | EC50 (P. falciparum 3D7 [1]; [4]): 5460 nM
26 | CCOc1ccc(CCNC(=O)c2cccs2)cc1OCC [MMV007978] | 95 | – | EC50 (P. falciparum 3D7 [1]; [4]): 890 nM
27 | COc1ccc(C2=C(c3ccc(OC)cc3)C3(c4ccccc4)C(=O)C2(c2ccccc2)C2C(=O)N(c4ccc(C)cc4)C(=O)C23)cc1 (centres unmarked) [MMV666101] | 98 | 148 | EC50 (P. falciparum 3D7 [1]; source GNF (GNF-Pf id)): 12500 nM
28 | O=C(Nc1ccc(CN2CCOCC2)cc1)c1ccc(-c2cc(Cl)ccc2Cl)o1 [MMV020651] | 97 | 1940 | EC50 (P. falciparum 3D7 [1]; [4]): 613 nM
29 | COc1ccc(NC(=O)C2c3ccccc3C(=O)N(CC(C)C)C2c2cccs2)cc1 (centres unmarked) [MMV000662] | 100 | 36.7 | EC50 (P. falciparum 3D7 [1]; source StJude (SJ id)): 102 nM
